# Reference: patent US20250230149A1, “MGLUR5 MODULATING COMPOUNDS, COMPOSITIONS, AND METHODS OF USE” (Allyx Therapeutics, Inc., priority 2022, published 2025)
# pIC50: −log10 of the molar value.
# Tests used:
# Type in all cases: in vitro ADME
# P-glycoprotein (P-gp) = molecular target: T1, P-glycoprotein (P-gp) (Homo sapiens, UniProt P08183); test: In vitro inhibition of human transporter P-gp; conditions: in vitro cell test system; read-out: IC50, inhibition of probe substrate transport via P-gp
# T1 construct: host or cells: unspecified cell test systems
# Protocol: (§1) The in vitro potential for Compound 1 Form A to be an inhibitor of the human transporters P-glycoprotein (P-gp), […] (OATP) 1B1 and OATP1B3 was assessed in various in vitro cell test systems, and of BSEP in membrane vesicles.
# (§2) A decrease in the transporter-mediated activity of probe substrate in the presence of a positive control inhibitor, determined from incubations run alongside test compound, confirmed that the in vitro test systems were capable of identifying transporter inhibitors.
# OATP1B1 = molecular target: T2, OATP1B1 (Homo sapiens, UniProt Q9Y6L6); test: In vitro inhibition of human transporter OATP1B1; conditions: in vitro cell test system; read-out: IC50, inhibition of probe substrate transport via OATP1B1
# T2 construct: host or cells: unspecified cell test systems
# T2 sequence (Q9Y6L6 whole entry): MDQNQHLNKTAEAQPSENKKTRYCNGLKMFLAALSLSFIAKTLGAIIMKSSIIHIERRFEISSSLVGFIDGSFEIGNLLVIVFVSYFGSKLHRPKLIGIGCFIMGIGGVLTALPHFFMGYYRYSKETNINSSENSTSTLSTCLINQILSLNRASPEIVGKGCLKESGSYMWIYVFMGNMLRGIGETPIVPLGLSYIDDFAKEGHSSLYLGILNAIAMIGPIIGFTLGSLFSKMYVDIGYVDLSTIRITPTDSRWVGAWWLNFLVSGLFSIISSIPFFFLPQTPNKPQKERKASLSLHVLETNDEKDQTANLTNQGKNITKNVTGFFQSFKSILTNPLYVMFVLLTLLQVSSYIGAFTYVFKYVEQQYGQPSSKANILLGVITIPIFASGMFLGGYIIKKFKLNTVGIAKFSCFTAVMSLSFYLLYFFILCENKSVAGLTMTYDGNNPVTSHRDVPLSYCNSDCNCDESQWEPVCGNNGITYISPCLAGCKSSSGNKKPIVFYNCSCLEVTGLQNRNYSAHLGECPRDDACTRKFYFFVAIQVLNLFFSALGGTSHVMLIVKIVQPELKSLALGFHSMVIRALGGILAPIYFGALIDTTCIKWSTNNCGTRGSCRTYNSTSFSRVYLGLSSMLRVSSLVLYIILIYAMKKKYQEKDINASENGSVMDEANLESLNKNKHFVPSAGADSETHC
# Protocol: as §1, §2
# OATP1B3 = molecular target: T3, OATP1B3 (Homo sapiens, UniProt Q9NPD5); test: In vitro inhibition of human transporter OATP1B3; conditions: in vitro cell test system; read-out: IC50, inhibition of probe substrate transport via OATP1B3
# T3 construct: host or cells: unspecified cell test systems
# T3 sequence (Q9NPD5 whole entry): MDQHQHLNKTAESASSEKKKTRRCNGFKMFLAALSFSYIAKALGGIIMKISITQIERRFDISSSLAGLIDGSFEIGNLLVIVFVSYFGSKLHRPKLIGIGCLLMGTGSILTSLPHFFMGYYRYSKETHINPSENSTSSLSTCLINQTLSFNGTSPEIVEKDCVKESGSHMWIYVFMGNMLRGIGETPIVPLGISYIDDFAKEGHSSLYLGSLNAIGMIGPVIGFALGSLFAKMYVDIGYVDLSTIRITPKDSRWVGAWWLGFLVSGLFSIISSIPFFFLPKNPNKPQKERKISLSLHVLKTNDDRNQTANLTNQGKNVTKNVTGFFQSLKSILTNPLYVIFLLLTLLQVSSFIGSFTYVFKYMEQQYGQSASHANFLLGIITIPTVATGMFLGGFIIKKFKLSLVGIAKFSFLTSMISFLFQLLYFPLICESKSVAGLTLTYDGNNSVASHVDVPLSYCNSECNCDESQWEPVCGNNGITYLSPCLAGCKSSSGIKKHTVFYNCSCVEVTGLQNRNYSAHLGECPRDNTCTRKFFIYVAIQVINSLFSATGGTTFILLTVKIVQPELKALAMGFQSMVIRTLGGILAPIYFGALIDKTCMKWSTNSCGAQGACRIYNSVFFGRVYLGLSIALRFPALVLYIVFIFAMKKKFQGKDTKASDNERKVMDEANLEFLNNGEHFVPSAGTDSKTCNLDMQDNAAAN
# Protocol: as §1, §2
# BSEP = BSEP (Homo sapiens, UniProt O95342); test: In vitro inhibition of BSEP in membrane vesicles; conditions: read-out: IC50, inhibition of probe substrate transport via BSEP
# Chain of BSEP (O95342 whole entry): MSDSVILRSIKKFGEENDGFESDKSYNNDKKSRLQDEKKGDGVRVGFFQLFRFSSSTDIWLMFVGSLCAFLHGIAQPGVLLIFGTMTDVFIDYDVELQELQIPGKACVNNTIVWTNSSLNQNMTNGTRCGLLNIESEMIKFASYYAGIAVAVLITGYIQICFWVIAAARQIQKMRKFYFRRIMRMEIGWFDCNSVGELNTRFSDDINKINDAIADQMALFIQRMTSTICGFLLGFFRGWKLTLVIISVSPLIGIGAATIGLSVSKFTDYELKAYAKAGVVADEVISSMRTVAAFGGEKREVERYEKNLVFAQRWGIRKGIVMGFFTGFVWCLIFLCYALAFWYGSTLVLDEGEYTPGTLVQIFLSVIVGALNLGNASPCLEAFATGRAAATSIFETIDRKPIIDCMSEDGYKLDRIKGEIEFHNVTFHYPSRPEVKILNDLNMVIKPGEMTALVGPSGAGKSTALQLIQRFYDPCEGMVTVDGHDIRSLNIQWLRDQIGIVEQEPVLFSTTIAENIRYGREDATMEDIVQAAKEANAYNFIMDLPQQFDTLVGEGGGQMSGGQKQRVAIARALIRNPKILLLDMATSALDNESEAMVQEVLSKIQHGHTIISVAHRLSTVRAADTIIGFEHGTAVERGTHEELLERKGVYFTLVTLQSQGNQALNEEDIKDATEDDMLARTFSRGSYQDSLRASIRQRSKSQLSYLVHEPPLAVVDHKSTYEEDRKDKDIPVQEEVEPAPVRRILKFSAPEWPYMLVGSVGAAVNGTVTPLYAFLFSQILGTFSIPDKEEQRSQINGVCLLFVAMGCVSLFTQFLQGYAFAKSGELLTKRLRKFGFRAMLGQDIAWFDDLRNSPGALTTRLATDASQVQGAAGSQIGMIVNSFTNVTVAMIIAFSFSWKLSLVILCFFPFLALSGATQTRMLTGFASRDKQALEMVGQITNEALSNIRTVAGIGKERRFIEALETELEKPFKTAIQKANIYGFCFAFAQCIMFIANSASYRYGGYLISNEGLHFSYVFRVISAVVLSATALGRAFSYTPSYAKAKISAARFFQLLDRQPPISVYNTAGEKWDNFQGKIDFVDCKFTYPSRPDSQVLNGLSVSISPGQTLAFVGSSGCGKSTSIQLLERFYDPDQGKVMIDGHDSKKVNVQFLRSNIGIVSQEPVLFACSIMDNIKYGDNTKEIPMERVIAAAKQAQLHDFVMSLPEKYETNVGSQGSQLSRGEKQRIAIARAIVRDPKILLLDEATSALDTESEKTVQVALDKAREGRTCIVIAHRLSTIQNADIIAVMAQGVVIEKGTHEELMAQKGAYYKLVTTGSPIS
# Protocol: as §1, §2
# CYP1A2 [1] = molecular target: T4, CYP1A2 (Homo sapiens, UniProt P05177); test: CYP450 reaction phenotyping in Supersomes, CYP1A2
# T4 construct: purchased
# T4 sequence (P05177 1-516): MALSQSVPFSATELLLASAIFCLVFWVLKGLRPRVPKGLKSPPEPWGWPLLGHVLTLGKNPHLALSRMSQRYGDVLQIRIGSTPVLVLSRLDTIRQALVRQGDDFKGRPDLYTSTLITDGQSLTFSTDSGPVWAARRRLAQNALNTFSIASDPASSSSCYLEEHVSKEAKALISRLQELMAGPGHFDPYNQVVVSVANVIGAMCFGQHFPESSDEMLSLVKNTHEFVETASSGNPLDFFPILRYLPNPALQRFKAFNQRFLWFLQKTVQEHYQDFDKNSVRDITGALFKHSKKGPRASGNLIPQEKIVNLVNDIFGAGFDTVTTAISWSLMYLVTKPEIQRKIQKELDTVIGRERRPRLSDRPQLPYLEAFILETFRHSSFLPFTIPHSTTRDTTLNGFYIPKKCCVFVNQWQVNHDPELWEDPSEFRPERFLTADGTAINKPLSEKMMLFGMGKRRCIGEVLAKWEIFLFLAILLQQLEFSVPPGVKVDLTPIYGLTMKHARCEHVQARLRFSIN
# From the text: (§3) In Vitro CYP450 Reaction Phenotyping Study in Supersomes™ Over-Expressing Human CYP Enzymes The CYPP450 enzymes involved in the Phase I metabolism of Compound 1 Form A were investigated in vitro. […] No evidence of Compound 1 metabolism by CYP2B6, CYP2C8, CYP2C9 and CYP2C19 was observed.
# CYP2D6 [2] = molecular target: T5, CYP2D6 (Homo sapiens, UniProt P10635); test: CYP450 reaction phenotyping in Supersomes, CYP2D6
# T5 construct: purchased
# T5 sequence (P10635 whole entry): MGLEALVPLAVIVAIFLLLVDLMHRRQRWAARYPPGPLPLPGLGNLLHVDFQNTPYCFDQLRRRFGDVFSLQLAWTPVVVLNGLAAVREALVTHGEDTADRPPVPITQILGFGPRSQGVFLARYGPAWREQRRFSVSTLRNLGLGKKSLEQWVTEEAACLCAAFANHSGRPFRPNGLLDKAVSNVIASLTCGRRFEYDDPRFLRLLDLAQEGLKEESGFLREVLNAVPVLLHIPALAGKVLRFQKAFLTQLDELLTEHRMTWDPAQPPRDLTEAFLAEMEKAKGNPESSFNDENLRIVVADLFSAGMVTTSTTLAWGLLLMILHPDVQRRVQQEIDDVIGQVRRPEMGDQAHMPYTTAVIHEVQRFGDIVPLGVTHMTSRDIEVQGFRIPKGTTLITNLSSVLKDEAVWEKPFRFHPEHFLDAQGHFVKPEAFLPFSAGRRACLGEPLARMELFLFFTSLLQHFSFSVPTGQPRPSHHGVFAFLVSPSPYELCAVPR
# From the text: as §3
# CYP3A4 [3] = molecular target: T6, CYP3A4 (Homo sapiens, UniProt P08684); test: CYP450 reaction phenotyping in Supersomes, CYP3A4
# T6 construct: purchased
# T6 sequence (P08684 whole entry): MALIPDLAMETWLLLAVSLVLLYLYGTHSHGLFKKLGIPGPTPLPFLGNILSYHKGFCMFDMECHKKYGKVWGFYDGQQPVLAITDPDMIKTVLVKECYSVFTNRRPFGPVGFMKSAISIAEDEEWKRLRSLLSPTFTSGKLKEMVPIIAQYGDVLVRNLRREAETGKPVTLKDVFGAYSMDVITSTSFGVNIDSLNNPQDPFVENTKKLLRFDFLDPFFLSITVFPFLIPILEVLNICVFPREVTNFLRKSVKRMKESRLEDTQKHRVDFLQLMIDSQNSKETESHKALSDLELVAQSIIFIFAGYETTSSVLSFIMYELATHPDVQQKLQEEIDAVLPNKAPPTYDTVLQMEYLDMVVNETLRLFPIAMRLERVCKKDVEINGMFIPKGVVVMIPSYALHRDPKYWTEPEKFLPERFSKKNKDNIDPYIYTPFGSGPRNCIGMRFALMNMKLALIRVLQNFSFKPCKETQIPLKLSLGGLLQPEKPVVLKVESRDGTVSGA
# From the text: as §3
# CYP1A2 [4] = molecular target: T4, CYP1A2; test: CYP inhibition in human liver microsomes, CYP1A2
# From the text: (§4) In Vitro CYP Inhibition of CYP1A2, CYP2C8, CYP2C9, CYP2C19, CYP2D6 and CYP3A4 in Human Liver Microsomes This study assessed the potential inhibitory effect of Compound 1 Form A toward CYP1A2, CYP2C8, CYP2C9, CYP2C19, CYP2D6 and CYP3A4. Known inhibitors of each CYP were used as positive controls.
# CYP2C8 = molecular target: T7, CYP2C8 (Homo sapiens, UniProt P10632); test: CYP inhibition in human liver microsomes, CYP2C8
# T7 construct: purchased
# T7 sequence (P10632 whole entry): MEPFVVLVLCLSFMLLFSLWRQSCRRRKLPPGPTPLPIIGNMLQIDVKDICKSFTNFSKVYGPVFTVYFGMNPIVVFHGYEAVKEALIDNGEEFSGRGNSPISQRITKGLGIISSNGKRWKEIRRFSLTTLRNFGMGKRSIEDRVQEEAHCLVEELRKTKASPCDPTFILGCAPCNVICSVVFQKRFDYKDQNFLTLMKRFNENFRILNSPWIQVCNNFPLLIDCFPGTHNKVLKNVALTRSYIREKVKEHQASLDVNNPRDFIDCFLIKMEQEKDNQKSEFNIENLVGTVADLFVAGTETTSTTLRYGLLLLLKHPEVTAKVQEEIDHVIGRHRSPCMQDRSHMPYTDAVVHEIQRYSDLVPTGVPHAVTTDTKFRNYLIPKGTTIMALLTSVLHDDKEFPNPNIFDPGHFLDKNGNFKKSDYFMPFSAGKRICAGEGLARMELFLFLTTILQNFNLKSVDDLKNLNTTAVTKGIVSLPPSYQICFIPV
# From the text: as §4
# CYP2C9 = molecular target: T8, CYP2C9 (Homo sapiens, UniProt P11712); test: CYP inhibition in human liver microsomes, CYP2C9
# T8 construct: purchased
# From the text: as §4
# CYP2D6 [5] = molecular target: T5, CYP2D6; test: CYP inhibition in human liver microsomes, CYP2D6
# From the text: as §4
# CYP3A4 [6] = molecular target: T6, CYP3A4; test: CYP inhibition in human liver microsomes, CYP3A4
# From the text: as §4
# CYP3A4 [7] = molecular target: T6, CYP3A4; test: Metabolism dependent inhibition in human liver microsomes, CYP3A4
# From the text: (§5) In Vitro Metabolite Dependent Inhibition of CYP2D6 and CYP3A4 Study in Human Liver Microsomes
# (§6) This study assessed the metabolism dependent inhibition potential of Compound 1 Form A toward CYP3A4 and CYP2D6 in human liver microsomes. Troleandomycin and paroxetine, known metabolism dependent inhibitors of CYP3A4 and CYP2D6, respectively were used as positive controls.
# CYP2D6 [8] = molecular target: T5, CYP2D6; test: Metabolism dependent inhibition in human liver microsomes, CYP2D6
# From the text: as §5, §6
# CYP2C19 = CYP2C19 (Homo sapiens, UniProt P33261); test: CYP inhibition in human liver microsomes, CYP2C19; set-up: CYP2D6 and CYP3A4 in Human Liver Microsomes; from tissue; host or cells: human liver microsomes
# Chain of CYP2C19 (P33261 whole entry): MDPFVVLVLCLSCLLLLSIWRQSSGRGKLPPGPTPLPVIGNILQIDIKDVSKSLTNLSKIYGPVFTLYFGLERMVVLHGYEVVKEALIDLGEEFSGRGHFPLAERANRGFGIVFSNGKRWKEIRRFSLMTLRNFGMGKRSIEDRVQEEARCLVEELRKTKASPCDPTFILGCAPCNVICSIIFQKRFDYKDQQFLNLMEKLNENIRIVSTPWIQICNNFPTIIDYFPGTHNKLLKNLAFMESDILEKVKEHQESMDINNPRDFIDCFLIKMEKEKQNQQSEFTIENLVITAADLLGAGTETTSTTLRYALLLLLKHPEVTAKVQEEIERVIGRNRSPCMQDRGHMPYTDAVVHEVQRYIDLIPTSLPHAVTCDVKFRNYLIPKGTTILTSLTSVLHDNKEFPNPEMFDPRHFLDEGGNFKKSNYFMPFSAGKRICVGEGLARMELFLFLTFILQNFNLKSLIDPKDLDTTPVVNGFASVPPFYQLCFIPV
# From the text: as §4
smiles,measurement,setting,value
"O=C1N[C@H](c2cncc(C#Cc3ccccc3)c2)[C@@H](c2ccccc2Cl)O1 [Compound 1 Form A, (4R,5R)-5-(2-chlorophenyl)-4-(5-(phenylethynyl)pyridin-3-yl)oxazolidin-2-one]",pIC50,P-glycoprotein (P-gp),4.56
same,pIC50,OATP1B1,5.17
same,pIC50,OATP1B3,4.49
same,pIC50,BSEP,4.86
same,predicted contribution to total metabolism,"CYP1A2 [1]; CYP1A2, relative activity of factors method",43.1%
same,CLint,"CYP1A2 [1]; Supersomes, CYP1A2",0.261 μL/min/pmol CYP
same,half-life,"CYP1A2 [1]; human, Supersomes over-expressing human CYP1A2, Supersomes, CYP1A2",1.07 h
same,predicted contribution to total metabolism,"CYP2D6 [2]; CYP2D6, relative activity of factors method",18%
same,CLint,"CYP2D6 [2]; Supersomes, CYP2D6",0.984 μL/min/pmol CYP
same,half-life,"CYP2D6 [2]; human, Supersomes over-expressing human CYP2D6, Supersomes, CYP2D6",0.233 h
same,predicted contribution to total metabolism,"CYP3A4 [3]; CYP3A4, relative activity of factors method",38.9%
same,CLint,"CYP3A4 [3]; Supersomes, CYP3A4",0.0786 μL/min/pmol CYP
same,half-life,"CYP3A4 [3]; human, Supersomes over-expressing human CYP3A4, Supersomes, CYP3A4",2.93 h
same,pIC50,CYP1A2 [4],5.71
same,pIC50,CYP2C8,4.28
same,pIC50,CYP2C9,4.91
same,inhibition of CYP2D6,CYP2D6 [5],no inhibition
same,pIC50,CYP3A4 [6]; atorvastatin only,4.25
same,inhibition of CYP3A4,CYP3A4 [6]; midazolam as substrate,no inhibition
same,inhibition of CYP3A4,CYP3A4 [6]; nifedipine as substrate,no inhibition
same,metabolism dependent inhibition of CYP3A4,CYP3A4 [7],not a metabolism dependent inhibitor
same,metabolism dependent inhibition of CYP2D6,CYP2D6 [8],not a metabolism dependent inhibitor
same,pIC50,CYP2C19,5.21
